The results in this text go back to patent publication US9522890B2, “Compounds acting at multiple prostaglandin receptors giving a general anti-inflammatory response” (Allergan, Inc., priority 2011, dated 2016).

Assay type in all cases: cell-based
The target in experiment [1] is T1, human recombinant prostanoid EP4 receptor (Homo sapiens, UniProt P35408).
T1 construct: expressed in transfected cells; co-transfected with chimeric Gqs-HA
Nature of the experiment: FLIPR Ca2+ signaling PG antagonist assay, EP4 receptor stable cell line. The note with it: HEK-293 EBNA cells with chimeric Gqs, standard agonist PGE2. Here is the method:
(§1) The above compounds were tested for PG antagonist activity as follows using human recombinant prostanoid receptor (DP1, EP1-4, FP, IP and TP) stable cell lines:
(§2) In order to measure the response of Gs and Gi coupled prostanoid receptors as a Ca^2+ signal, chimeric G protein cDNAs were used. Stable cell lines over-expressing human prostanoid DP1, EP1-4, FP, IP, and TP receptors were established as follows:
(§3) Briefly, human prostanoid DP1, EP2, and EP4 receptor cDNAs were co-transfected with chimeric Gqs cDNA containing a haemagglutanin (HA) epitope; human prostanoid EP3 receptors were co-transfected with chimeric Gqi-HA; human EP1, FP, IP, and TP receptor cDNAs were expressed with no exogenous G-proteins. Gqs and Gqi chimeric cDNAs (Molecular Devices, Sunnyvale, Calif., U.S.A.), as well as cDNAs of prostanoid receptors, were cloned into a pCEP4 vector with a hygromycin B selection marker. Transfection into HEK-293 EBNA (Epstein-Barr virus nuclear antigen) cells was achieved by the FuGENE 6 transfection Reagent (Roche Applied Science, Indianapolis, Ind., USA). Stable transfectants were selected according to hygromycin resistance. Because Gqs and Gqi contained an HA epitope, G-protein expression was detected by Western blotting analysis using anti-mouse HA monoclonal antibody and horseradish peroxidase (HRP)-conjugated secondary antibody, while functional expression of prostanoid receptors was detected by FLIPR screening (Matias et al., 2004). These stable cell lines were validated using previously published antagonists at 10 μM against serial dilutions of standard agonists by FLIPR functional assays for Ca^2+ Signaling (as described below).
(§4) Ca^2+ signaling studies were performed using a FLIPR TETRA system (Molecular Devices, Sunnyvale, Calif., USA) in the 384-format. This is a high-throughput instrument for cell-based assays to monitor Ca^2+ signaling associated with GPCRs and ion channels. Cells were seeded at a density of 5×10^4 cells/well in BioCoat poly-D-lysine coated, black wall, clear bottom 384-well plates (BD Biosciences, Franklin lakes, NJ, USA) and allowed to attach overnight in an incubator at 37° C. The cells were then washed twice with HBSS-HEPES buffer (Hanks' balanced salt solution without bicarbonate and phenol red, 20 mM HEPES, pH 7.4) using an ELx405 Select CW Microplate Washer (BioTek, Winooski, Vt., USA). After 60 min of dye-loading in the dark using the Ca^2+-sensitive dye Fluo-4AM (Invitrogen, Carlsbad, Calif., USA), at a final concentration of 2×10^−6M, the plates were washed 4 times with HBSS-HEPES buffer to remove excess dye and leaving 50 μl of buffer in each well. The plates were then placed in the FLIPR TETRA instrument and allowed to equilibrate at 37° C. Compounds were added in a 25 μl volume to each well to give final concentrations of 0.1 μM, 0.3 μM, 1 μM, 3 μM, 10 μM, and 30 μM; or 0.067 μM, 0.1 μM, 0.2 μM, 0.3 μM, 0.67 μM, and 1 μM for cells over-expressing TP receptors. After 4.5 minutes, a 7-point serial dilution of the standard agonist for the corresponding receptor, in a 25 μl volume was injected at the final concentrations from 10^−11M to 10^−5M in 10-fold serial dilution increments for cells expressing human recombinant DP1, EP1, EP2, EP3, EP4, FP, and IP receptors. The dose range for the standard agonist for human recombinant TP receptors was from 10^−12M to 10^−6M. HBSS-HEPES buffer was used as the negative control for the standard agonists. Cells were excited with LED (light emitting diode) excitation at 470-495 nm and emission was measured through an emission filter at 515-575 nm. Assay plates were read for 3.5 minutes using the FLIPR^TETRA. The peak increase in fluorescence intensity was recorded for each well. On each plate, negative controls, dose response of positive controls, and co-treatments of antagonist-agonist for each dose were in triplicates. Standard agonists were as follows: DP=BW 245C, EP1-EP4=PGE2, FP=17-phenyl-PGF2α, IP=Cicaprost, and TP=U-46619. […]

In experiment [2] the target is T2, human recombinant prostanoid FP receptor (Homo sapiens, UniProt P43088).
T2 construct: expressed in transfected cells
Kind of experiment: FLIPR Ca2+ signaling PG antagonist assay, FP receptor stable cell line. The following applies: HEK-293 EBNA cells, standard agonist 17-phenyl-PGF2α. Here is the method: as §1, §2, §3, §4

Experiment [3] has as its target T3, human recombinant prostanoid IP receptor (Homo sapiens, UniProt P43119).
T3 construct: expressed in transfected cells
Kind of experiment: FLIPR Ca2+ signaling PG antagonist assay, IP receptor stable cell line. The note with it: HEK-293 EBNA cells, standard agonist Cicaprost. Here is the method: as §1, §2, §3, §4

In experiment [4] the target is T4, human recombinant prostanoid EP1 receptor (Homo sapiens, UniProt P34995).
T4 construct: expressed in transfected cells
T4 sequence (P34995 1-402): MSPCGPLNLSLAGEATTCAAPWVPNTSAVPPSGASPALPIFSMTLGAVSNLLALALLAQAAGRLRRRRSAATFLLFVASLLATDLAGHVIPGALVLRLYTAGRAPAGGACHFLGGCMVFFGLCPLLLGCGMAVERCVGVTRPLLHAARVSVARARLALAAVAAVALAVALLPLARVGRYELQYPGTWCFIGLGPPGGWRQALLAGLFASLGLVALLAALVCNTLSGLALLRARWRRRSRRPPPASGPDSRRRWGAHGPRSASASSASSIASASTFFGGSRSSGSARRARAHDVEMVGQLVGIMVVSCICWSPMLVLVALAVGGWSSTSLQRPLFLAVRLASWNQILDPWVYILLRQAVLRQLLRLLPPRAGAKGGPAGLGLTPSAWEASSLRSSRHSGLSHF
Nature of the experiment: FLIPR Ca2+ signaling PG antagonist assay, EP1 receptor stable cell line. The note with it: HEK-293 EBNA cells, standard agonist PGE2. The protocol:
as §1, §2, §3, §4

In experiment [5] the target is T5, human recombinant prostanoid DP1 receptor (Homo sapiens, UniProt Q13258).
T5 construct: expressed in transfected cells; co-transfected with chimeric Gqs-HA
T5 sequence (Q13258 1-359): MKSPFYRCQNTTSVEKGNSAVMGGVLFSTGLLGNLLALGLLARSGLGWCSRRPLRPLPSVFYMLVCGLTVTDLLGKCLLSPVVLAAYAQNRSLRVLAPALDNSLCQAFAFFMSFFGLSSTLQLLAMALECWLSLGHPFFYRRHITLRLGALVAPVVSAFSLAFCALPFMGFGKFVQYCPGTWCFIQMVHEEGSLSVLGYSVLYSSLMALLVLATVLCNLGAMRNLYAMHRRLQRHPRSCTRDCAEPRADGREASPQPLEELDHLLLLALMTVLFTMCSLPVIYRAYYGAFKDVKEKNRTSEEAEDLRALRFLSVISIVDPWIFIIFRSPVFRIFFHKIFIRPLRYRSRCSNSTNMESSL
Kind of experiment: FLIPR Ca2+ signaling PG antagonist assay, DP1 receptor stable cell line. The note with it: HEK-293 EBNA cells with chimeric Gqs, standard agonist BW 245C; read-out: DP (antagonist Kb). The protocol:
as §1, §2, §3, §4

Where only a bound is given, the exact number is not on record here.

T1 sequence (P35408 whole entry): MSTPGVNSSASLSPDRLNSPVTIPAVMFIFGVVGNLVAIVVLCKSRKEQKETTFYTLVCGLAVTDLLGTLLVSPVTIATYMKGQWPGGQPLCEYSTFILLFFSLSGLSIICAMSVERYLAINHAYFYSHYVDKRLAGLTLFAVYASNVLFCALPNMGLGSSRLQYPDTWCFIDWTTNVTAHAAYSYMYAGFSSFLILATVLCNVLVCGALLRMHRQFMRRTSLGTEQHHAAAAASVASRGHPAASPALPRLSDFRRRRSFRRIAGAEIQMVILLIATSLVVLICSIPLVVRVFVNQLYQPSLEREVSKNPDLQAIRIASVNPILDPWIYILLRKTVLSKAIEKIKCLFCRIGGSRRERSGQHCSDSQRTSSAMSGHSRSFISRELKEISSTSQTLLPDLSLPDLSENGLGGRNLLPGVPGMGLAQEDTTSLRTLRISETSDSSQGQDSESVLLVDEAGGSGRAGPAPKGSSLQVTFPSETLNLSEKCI
T2 sequence (P43088 whole entry): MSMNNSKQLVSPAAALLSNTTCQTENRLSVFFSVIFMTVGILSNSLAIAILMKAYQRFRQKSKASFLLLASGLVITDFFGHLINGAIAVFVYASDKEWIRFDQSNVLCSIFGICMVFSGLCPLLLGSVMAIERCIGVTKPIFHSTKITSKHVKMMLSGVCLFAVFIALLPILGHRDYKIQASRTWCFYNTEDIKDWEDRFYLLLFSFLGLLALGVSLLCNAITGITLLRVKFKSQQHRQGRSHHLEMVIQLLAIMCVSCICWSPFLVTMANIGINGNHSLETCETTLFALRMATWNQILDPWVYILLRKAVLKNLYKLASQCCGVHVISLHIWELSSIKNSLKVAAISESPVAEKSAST
T3 sequence (P43119 whole entry): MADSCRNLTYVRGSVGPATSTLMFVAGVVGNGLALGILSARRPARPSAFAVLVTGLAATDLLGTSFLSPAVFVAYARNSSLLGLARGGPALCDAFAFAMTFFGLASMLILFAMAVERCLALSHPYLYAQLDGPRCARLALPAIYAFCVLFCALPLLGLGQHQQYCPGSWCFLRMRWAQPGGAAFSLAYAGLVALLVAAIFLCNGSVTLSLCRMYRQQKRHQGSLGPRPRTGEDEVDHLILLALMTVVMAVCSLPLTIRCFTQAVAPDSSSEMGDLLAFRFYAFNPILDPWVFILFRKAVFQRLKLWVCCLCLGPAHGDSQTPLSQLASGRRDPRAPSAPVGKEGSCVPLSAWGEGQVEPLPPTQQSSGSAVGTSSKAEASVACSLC

In the case of `CCC(CC)COc1ccc(Br)cc1Cn1nc(C(=O)O)cc1C` [Example 6, 1-[5-BROMO-2-(2-ETHYL-BUTOXY)-BENZYL]-5-METHYL-1H-PYRAZOLE-3-CARBOXYLIC ACID], the Kb – broadly, the affinity of an antagonist, worked out from how it opposes an agonist – in experiment [1] was 800 nM; in experiment [2], 35 nM; in experiment [3], 500 nM; in experiment [4], 10 nM; in experiment [5] it was 150 nM.

On to `Cc1cc(C(=O)O)nn1Cc1cc(Br)ccc1OCC1CCC1` [Example 8, 1-(5-BROMO-2-CYCLOBUTYLMETHOXY-BENZYL)-5-METHYL-1H-PYRAZOLE-3-CARBOXYLIC ACID], for which the Kb worked out at 700 nM in experiment [1]; 8 nM in experiment [2]; 5600 nM in experiment [3]; 10 nM in experiment [4]; 130 nM in experiment [5].

Turning to `Cc1cc(C(=O)O)nn1Cc1cc(Br)ccc1OCC1CCCC1` [Example 2, 1-(5-BROMO-2-CYCLOPENTYLMETHOXY-BENZYL)-5-METHYL-1H-PYRAZOLE-3-CARBOXYLIC ACID], the antagonist equilibrium constant (Kb) in experiment [1] was 400 nM; in experiment [2] it was 20 nM; in experiment [3], 1300 nM; in experiment [4] it was 10 nM; in experiment [5] it was 400 nM.

For the compound `Cc1cc(C(=O)O)nn1Cc1cc(C(F)(F)F)ccc1OCC1CCCC1` [Example 3, 1-(2-CYCLOPENTYLMETHOXY-5-TRIFLUOROMETHYL-BENZYL)-5-METHYL-1H-PYRAZOLE-3-CARBOXYLIC ACID], the Kb in experiment [1] amounted to 700 nM; in experiment [2] it was 80 nM; in experiment [3], 4000 nM; in experiment [4], 5 nM; in experiment [5], 700 nM.

Consider `Cc1cc(C(=O)O)nn1Cc1cc(Br)ccc1OCC1(C(F)(F)F)CCC1` [Example 9, 1-[5-BROMO-2-(1-TRIFLUOROMETHYL-CYCLOBUTYLMETHOXY)-BENZYL]-5-METHYL-1H-PYRAZOLE-3-CARBOXYLIC ACID], for which the Kb is 600 nM in experiment [1]; 30 nM in experiment [2]; ≥ 10000 nM in experiment [3]; 16 nM in experiment [4]; 190 nM in experiment [5].

On to `CCC(C)(CC)COc1ccc(Br)cc1Cn1nc(C(=O)O)cc1C` [Example 7, 1-[5-BROMO-2-(2-ETHYL-2-METHYL-BUTOXY)-BENZYL]-5-METHYL-1H-PYRAZOLE-3-CARBOXYLIC ACID], for which the Kb in experiment [1] turned out to be 2070 nM; in experiment [2] it was 80 nM; in experiment [3], 1700 nM; in experiment [4], 19 nM; in experiment [5], 150 nM.

On to `COc1ccc(COc2ccc(Cl)cc2Cn2nc(C(=O)NS(=O)(=O)c3ccccc3)cc2C)cc1` [Example 4, N-{1-[5-CHLORO-2-(4-METHOXY-BENZYLOXY)-BENZYL]-5-METHYL-1H-PYRAZOLE-3-CARBONYL}-BENZENESULFONAMIDE], for which the Kb in experiment [1] worked out at 140 nM; in experiment [2], 400 nM; in experiment [3], 900 nM; in experiment [4] it was 10 nM; in experiment [5] it was 800 nM.

As to `Cc1cc(C(=O)NS(=O)(=O)c2ccccc2)nn1Cc1cc(Cl)ccc1OCc1ccc(Cl)cc1` [Example 5, N-{1-[5-CHLORO-2-(4-CHLORO-BENZYLOXY)-BENZYL]-5-METHYL-1H-PYRAZOLE-3-CARBONYL}-BENZENESULFONAMIDE], the Kb in experiment [1] stood at 75 nM; in experiment [2], 1700 nM; in experiment [3], 2000 nM; in experiment [4] it was 10 nM; in experiment [5] it was 2600 nM.

In the case of `Cc1cc(C(=O)O)nn1Cc1cc(Cl)ccc1OCC1CCCC1` [Example 1, 1-(5-CHLORO-2-CYCLOPENTYLMETHOXY-BENZYL)-5-METHYL-1H-PYRAZOLE-3-CARBOXYLIC ACID], the Kb in experiment [1] was 800 nM; in experiment [2], 150 nM; in experiment [3], ≥ 10000 nM; in experiment [4], 30 nM; in experiment [5], 800 nM.
